Key:
[1] = DRUGMATRIX: Glutamate, NMDA, Agonism radioligand binding (ligand: [3H] CGP-39653); format: cell membranes, Rattus norvegicus, Wistar, Cerebral cortex, Membrane; details: Not Active = under 50% inhibition at 10 µM
[2] = target: T1, Angiotensin-converting enzyme (Oryctolagus cuniculus, UniProt P12822); test: biochemical; format: tissue-based, Lung;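 note: enzymatic inhibition of angiotensin-converting enzyme measured with FAPGG as the substrate; in other assays of this panel Not Active means under 50% inhibition at 10 µM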
T1 sequence (P12822 whole entry): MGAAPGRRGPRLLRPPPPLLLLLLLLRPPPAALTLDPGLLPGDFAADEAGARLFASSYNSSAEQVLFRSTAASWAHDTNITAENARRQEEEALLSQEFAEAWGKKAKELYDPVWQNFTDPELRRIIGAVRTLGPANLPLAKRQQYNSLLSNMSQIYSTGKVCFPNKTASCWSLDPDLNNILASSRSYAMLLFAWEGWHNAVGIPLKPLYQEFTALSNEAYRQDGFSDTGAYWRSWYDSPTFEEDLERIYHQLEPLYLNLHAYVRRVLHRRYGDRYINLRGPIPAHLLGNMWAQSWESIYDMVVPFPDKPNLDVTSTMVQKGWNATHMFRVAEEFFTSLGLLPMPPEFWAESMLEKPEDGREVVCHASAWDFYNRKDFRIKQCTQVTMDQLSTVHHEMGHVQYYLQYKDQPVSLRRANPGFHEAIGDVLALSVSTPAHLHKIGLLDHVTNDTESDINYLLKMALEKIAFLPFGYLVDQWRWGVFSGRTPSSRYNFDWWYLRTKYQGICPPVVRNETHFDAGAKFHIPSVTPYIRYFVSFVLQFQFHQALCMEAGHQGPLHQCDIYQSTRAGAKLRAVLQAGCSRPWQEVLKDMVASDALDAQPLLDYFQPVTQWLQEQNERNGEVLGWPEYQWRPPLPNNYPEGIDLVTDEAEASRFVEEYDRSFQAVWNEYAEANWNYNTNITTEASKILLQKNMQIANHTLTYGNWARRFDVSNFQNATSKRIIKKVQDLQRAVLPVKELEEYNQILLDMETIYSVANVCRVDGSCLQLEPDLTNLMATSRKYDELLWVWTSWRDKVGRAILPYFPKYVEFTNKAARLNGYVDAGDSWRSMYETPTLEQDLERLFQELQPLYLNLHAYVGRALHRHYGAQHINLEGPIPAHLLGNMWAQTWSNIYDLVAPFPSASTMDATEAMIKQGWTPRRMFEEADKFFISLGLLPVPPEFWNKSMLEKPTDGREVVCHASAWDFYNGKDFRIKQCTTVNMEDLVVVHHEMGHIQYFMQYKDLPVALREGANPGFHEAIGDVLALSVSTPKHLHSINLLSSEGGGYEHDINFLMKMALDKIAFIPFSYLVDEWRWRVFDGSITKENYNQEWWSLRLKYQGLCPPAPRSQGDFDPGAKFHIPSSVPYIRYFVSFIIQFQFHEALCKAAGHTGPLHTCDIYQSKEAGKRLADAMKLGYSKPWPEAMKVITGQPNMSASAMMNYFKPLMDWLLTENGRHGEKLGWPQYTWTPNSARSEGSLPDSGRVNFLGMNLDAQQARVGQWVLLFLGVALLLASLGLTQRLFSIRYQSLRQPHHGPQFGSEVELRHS

[3] = DRUGMATRIX: GABAA, Chloride Channel, TBOB radioligand binding (ligand: [3H] TBOB); format: cell membranes, Rattus norvegicus, Wistar, Cerebral cortex, Membrane; details: Not Active = under 50% inhibition at 10 µM
Melanocortin receptor 5 = Melanocortin receptor 5 (Homo sapiens, UniProt P33032); format: cell membranes, HEK293, Membrane; details: hek293; note: in other assays of this panel Not Active means under 50% inhibition at 10 µM
[4] = DRUGMATRIX: Interleukin IL-1 radioligand binding (ligand: [125I] interleukin 1beta); format: cell membranes, Membrane; details: nih3t3; Not Active = under 50% inhibition at 10 µM
D(4) dopamine receptor = target: T2, D(4) dopamine receptor (Homo sapiens, UniProt P21917); test: DRUGMATRIX: Dopamine D4.2 radioligand binding (ligand: [3H] Spiperone); format: cell membranes, CHO-K1, Membrane; details: cho-k1; Not Active = under 50% inhibition at 10 µM
T2 sequence (P21917 whole entry): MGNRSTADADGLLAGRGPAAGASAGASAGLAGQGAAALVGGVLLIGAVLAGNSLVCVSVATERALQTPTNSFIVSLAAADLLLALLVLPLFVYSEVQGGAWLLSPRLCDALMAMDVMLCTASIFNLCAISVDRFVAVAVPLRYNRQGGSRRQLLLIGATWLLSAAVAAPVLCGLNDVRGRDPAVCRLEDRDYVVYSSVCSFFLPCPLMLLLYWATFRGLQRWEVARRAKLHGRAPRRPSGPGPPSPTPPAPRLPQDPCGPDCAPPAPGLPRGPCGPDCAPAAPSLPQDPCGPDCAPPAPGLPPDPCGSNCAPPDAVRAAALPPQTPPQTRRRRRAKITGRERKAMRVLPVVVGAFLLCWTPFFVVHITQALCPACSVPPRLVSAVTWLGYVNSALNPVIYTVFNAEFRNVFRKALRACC

[5] = target: Epidermal growth factor receptor (Homo sapiens, UniProt P00533); test: DRUGMATRIX: Protein Tyrosine Kinase, EGF Receptor enzyme inhibition (substrate: Poly(Glu:Tyr)); format: cell-based, Insect cells; details: Not Active = under 50% inhibition at 10 µM
[6] = target: T3, Muscarinic acetylcholine receptor M5 (Homo sapiens, UniProt P08912); format: cell membranes, CHO-K1, Membrane; note: in other assays of this panel Not Active means under 50% inhibition at 10 µM
T3 sequence (P08912 whole entry): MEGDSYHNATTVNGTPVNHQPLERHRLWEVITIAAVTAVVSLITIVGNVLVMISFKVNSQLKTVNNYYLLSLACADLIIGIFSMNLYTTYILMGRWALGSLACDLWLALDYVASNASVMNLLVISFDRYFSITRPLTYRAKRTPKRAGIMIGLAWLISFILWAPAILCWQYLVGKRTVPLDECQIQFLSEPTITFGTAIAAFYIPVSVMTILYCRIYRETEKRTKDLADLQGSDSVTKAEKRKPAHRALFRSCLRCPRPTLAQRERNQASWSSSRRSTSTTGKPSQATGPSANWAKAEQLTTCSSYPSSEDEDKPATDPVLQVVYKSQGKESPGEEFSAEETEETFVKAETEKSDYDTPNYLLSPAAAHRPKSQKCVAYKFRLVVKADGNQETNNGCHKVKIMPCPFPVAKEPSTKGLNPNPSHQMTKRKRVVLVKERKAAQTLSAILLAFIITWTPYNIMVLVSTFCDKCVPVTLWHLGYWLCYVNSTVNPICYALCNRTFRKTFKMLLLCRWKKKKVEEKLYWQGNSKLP

Sequence of Melanocortin receptor 5 (P33032 whole entry): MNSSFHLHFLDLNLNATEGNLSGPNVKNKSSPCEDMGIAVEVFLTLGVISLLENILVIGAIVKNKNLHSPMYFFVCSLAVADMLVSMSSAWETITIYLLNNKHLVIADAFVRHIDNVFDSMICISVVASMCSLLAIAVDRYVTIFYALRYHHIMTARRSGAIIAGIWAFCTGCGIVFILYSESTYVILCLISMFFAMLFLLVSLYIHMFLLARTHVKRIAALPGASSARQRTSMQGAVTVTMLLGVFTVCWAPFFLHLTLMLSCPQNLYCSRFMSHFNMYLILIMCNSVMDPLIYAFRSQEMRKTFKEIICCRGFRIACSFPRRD
Sequence of Epidermal growth factor receptor (P00533 whole entry): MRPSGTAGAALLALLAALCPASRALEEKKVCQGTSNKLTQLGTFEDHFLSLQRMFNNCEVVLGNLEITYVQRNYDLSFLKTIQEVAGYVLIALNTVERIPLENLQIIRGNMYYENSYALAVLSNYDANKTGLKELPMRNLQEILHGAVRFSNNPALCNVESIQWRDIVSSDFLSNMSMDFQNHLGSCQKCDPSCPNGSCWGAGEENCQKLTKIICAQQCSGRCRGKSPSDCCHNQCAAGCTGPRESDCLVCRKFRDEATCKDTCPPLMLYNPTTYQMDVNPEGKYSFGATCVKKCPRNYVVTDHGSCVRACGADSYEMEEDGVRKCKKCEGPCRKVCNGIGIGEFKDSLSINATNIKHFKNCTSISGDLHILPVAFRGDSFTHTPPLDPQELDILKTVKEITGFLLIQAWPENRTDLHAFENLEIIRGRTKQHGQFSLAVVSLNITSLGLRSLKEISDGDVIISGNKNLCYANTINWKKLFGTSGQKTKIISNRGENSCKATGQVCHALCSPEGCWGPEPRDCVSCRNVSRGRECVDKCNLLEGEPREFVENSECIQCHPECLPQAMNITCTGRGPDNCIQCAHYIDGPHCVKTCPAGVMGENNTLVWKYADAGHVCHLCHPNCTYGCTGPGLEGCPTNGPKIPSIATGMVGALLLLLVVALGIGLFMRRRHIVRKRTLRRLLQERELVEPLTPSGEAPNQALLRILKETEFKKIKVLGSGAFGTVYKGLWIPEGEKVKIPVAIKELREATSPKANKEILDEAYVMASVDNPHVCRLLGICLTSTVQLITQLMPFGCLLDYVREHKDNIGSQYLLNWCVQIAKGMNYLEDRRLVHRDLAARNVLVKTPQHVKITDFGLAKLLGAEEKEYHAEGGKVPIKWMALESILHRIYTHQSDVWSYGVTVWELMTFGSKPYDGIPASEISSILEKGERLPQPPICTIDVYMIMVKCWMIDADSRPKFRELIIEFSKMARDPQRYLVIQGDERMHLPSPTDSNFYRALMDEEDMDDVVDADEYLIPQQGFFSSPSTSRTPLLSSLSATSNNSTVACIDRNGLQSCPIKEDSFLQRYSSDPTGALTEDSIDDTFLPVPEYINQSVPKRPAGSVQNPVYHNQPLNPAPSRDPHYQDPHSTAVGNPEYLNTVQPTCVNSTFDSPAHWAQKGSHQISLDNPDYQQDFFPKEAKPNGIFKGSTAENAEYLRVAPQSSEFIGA

| Structure (SMILES) | IC50 [1] | Ki [1] | IC50 [2] | IC50 [3] | Ki [3] | IC50 (Melanocortin receptor 5) | IC50 [4] | Ki [4] | IC50 (D(4) dopamine receptor) | IC50 ([5]; insect cells) | IC50 ([6]; cho-k1) | IC50 ([2]; read-out: IC50) [µM] | IC50 ([5]; read-out: IC50) [µM] | IC50 ([6]; read-out: IC50) [µM] | Ki ([6]; read-out: Ki) [µM] |
| --- | --- | --- | --- | --- | --- | --- | --- | --- | --- | --- | --- | --- | --- | --- | --- |
| CCOC(=O)[C@H](CCc1ccccc1)N[C@@H](C)C(=O)N1[C@H](C(=O)O)C[C@@H]2CCC[C@@H]21 | Not Active | Not Active | Not Active | Not Active | Not Active | Not Active | Not Active | Not Active | Not Active | Not Active | Not Active | – | – | – | – |
| NNC(=O)c1ccncc1 [ISONIAZID] | Not Active | Not Active | Not Active | Not Active | Not Active | Not Active | Not Active | Not Active | Not Active | Not Active | Not Active | – | – | – | – |
| Nc1nnc(-c2cccc(Cl)c2Cl)c(N)n1 [LAMOTRIGINE] | Not Active | Not Active | Not Active | Not Active | Not Active | Not Active | Not Active | Not Active | Not Active | Not Active | Not Active | – | – | – | – |
| C[C@]12Cc3c[nH]nc3C[C@@H]1CC[C@@H]1[C@@H]2CC[C@@]2(C)[C@H]1CC[C@]2(C)O [STANOZOLOL] | Not Active | Not Active | Not Active | Not Active | Not Active | Not Active | Not Active | Not Active | Not Active | Not Active | Not Active | – | – | – | – |
| CC1=C(/C=C/C(C)=C/C=C/C(C)=C\C(=O)O)C(C)(C)CCC1 [ISOTRETINOIN] | Not Active | Not Active | Not Active | Not Active | Not Active | Not Active | Not Active | Not Active | Not Active | Not Active | Not Active | – | – | – | – |
| NC(CO)(CO)CO [TROMETHAMINE] | Not Active | Not Active | Not Active | Not Active | Not Active | Not Active | Not Active | Not Active | Not Active | Not Active | Not Active | – | – | – | – |
| Cc1ccc(C(=O)C(C)CN2CCCCC2)cc1 (centres undefined) [TOLPERISONE] | Not Active | Not Active | Not Active | Not Active | Not Active | Not Active | Not Active | Not Active | Not Active | Not Active | Not Active | – | – | – | – |
| CN(N=O)C(=O)N[C@@H](C=O)[C@@H](O)[C@H](O)[C@H](O)CO [STREPTOZOCIN] | Not Active | Not Active | Not Active | Not Active | Not Active | Not Active | Not Active | Not Active | Not Active | Not Active | Not Active | – | – | – | – |
| NC(=O)c1ncn([C@@H]2O[C@H](CO)[C@@H](O)[C@H]2O)n1 [RIBAVIRIN] | Not Active | Not Active | Not Active | Not Active | Not Active | Not Active | Not Active | Not Active | Not Active | Not Active | Not Active | – | – | – | – |
| Oc1c(I)cc(I)c2cccnc12 [IODOQUINOL] | Not Active | Not Active | – | Not Active | Not Active | Not Active | Not Active | Not Active | Not Active | – | Not Active | 0.906 | 1.89 | – | – |
| CN1[C@@H]2CC[C@H]1C[C@@H](OC(=O)c1c[nH]c3ccccc13)C2 [TROPISETRON] | Not Active | Not Active | Not Active | Not Active | Not Active | Not Active | Not Active | Not Active | Not Active | Not Active | – | – | – | 3.45 | 2.48 |
| NC(=O)c1ccccc1O [SALICYLAMIDE] | Not Active | Not Active | Not Active | Not Active | Not Active | Not Active | Not Active | Not Active | Not Active | Not Active | Not Active | – | – | – | – |
| COC(=O)C1=C(C)NC(C)=C(C(=O)OC)C1c1ccccc1[N+](=O)[O-] [NIFEDIPINE] | Not Active | Not Active | Not Active | Not Active | Not Active | Not Active | Not Active | Not Active | Not Active | Not Active | Not Active | – | – | – | – |

From ChEMBL document CHEMBL1909046, “DrugMatrix in vitro pharmacology data”
